Test results from US10526309B2, “Pan-TAM inhibitors and Mer/Axl dual inhibitors” (The University of North Carolina at Chapel Hill, priority 2015, dated 2020).
Like-named read-outs stand apart in the source and are kept apart here.

Columns and labels:
Type in all cases: biochemical
Axl = target: T1, Axl (Homo sapiens, UniProt P30530); test: Axl kinase inhibition IC50
T1 sequence (P30530 26-894): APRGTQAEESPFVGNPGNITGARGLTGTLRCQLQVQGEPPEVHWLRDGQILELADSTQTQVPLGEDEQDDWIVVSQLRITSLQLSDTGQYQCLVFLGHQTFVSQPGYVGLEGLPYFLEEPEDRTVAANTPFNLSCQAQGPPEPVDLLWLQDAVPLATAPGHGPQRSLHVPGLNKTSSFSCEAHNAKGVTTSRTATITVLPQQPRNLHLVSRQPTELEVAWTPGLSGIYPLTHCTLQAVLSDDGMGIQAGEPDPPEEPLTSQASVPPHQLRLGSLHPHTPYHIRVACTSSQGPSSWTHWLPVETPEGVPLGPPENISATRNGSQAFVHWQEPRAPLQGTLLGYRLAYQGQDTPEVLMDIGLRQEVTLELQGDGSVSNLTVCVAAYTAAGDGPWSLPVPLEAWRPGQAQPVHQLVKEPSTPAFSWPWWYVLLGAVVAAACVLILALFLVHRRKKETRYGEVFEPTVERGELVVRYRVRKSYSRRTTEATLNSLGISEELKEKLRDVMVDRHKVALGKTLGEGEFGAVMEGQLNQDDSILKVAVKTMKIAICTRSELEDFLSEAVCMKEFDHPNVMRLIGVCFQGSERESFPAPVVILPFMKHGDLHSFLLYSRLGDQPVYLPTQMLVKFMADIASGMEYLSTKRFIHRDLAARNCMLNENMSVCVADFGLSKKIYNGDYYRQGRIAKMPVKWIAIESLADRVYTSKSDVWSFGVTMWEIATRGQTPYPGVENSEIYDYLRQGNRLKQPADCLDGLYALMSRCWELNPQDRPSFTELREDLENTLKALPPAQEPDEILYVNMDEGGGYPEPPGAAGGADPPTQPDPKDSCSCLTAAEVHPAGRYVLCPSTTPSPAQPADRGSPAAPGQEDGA

Mer = target: T2, Mer (Homo sapiens, UniProt Q12866); test: Mer kinase inhibition IC50; details: read-out: Mer IC50
T2 sequence (Q12866 21-999): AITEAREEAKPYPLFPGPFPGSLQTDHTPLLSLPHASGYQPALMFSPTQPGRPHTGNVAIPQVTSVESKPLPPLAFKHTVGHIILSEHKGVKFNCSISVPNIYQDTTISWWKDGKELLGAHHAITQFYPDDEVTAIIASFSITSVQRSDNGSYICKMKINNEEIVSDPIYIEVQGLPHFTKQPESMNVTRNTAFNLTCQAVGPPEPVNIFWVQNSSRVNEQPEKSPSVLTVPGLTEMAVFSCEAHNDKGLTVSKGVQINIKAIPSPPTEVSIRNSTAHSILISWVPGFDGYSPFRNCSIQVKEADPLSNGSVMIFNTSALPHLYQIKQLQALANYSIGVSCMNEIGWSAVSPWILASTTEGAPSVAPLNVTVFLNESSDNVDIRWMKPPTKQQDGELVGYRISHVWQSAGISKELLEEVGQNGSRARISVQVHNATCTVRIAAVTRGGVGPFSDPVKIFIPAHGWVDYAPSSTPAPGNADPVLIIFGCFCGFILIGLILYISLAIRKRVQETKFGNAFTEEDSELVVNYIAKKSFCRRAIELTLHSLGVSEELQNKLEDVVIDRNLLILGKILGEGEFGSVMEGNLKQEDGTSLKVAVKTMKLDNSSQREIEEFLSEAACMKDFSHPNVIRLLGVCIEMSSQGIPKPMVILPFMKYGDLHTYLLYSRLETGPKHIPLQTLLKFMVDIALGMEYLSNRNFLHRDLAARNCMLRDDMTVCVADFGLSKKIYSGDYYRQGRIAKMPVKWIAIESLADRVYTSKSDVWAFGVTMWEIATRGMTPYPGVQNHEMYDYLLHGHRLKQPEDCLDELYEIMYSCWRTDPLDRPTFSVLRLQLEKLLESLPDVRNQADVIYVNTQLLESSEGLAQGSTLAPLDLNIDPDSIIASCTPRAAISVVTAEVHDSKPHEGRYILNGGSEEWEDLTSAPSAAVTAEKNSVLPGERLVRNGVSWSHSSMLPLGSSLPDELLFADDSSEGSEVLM

Tyro3 = target: T3, Tyro3 (Homo sapiens, UniProt Q06418); test: Tyro3 kinase inhibition IC50
T3 sequence (Q06418 41-890): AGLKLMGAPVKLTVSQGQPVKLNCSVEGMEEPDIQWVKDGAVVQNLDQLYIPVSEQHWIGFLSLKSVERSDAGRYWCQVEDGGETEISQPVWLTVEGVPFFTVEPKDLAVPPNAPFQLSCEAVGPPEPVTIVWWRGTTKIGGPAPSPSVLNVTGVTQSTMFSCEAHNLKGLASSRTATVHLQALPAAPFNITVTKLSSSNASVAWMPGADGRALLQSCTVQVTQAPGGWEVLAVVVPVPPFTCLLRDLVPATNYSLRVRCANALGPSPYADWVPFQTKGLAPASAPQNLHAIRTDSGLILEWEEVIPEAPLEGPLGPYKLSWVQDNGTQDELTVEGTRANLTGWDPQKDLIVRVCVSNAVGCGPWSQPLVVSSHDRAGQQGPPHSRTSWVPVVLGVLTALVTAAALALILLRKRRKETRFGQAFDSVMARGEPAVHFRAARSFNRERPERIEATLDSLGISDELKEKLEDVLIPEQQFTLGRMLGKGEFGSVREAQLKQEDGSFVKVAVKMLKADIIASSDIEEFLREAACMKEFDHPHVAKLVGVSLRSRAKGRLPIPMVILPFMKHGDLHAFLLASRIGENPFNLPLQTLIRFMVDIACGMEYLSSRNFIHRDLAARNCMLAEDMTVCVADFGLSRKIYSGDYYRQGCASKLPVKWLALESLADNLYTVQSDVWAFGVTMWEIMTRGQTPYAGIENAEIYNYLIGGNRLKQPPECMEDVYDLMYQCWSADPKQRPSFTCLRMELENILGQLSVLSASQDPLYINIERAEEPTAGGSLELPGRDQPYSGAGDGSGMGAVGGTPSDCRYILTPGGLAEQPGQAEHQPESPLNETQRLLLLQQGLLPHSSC

Row | SMILES | IC50 (Axl; Table 3) [nM] | IC50 (Mer; Table 3) [nM] | IC50 (Tyro3; Table 3, read-out: Tyro3 IC50) [nM] | other results
1 | CNc1nc(Nc2ccc(C3CCN(C)CC3)cc2)ncc1-c1ccccn1 [UNC5136A] |  |  |  | IC50 (Axl; Table 2): 1000 to 30000 nM; IC50 (Mer; Table 2): 1000 to 30000 nM; IC50 (Tyro3; Table 2, read-out: Tyro3 IC50): 1000 to 30000 nM
2 | CN1CCC(c2ccc(Nc3ncc(-c4ccccn4)c(N[C@H]4CC[C@H](O)CC4)n3)cc2)CC1 [UNC5130A] |  |  |  | IC50 (Axl; Table 2): 100 to 1000 nM; IC50 (Mer; Table 2): 10 to 100 nM; IC50 (Tyro3; Table 2, read-out: Tyro3 IC50): 100 to 1000 nM
3 | O[C@H]1CC[C@H](Nc2nc(Nc3ccc(C#Cc4cc(-c5cncnc5)ccn4)cc3)ncc2-c2ccccn2)CC1 [UNC4362A] |  |  |  | IC50 (Axl; Table 4): 100 to 1000 nM; IC50 (Mer; Table 4): 10 to 100 nM; IC50 (Tyro3; Table 4, read-out: Tryo3 IC50): 100 to 1000 nM
4 | CN1CCN(Cc2ccc(-c3cnc(Nc4ccc(C#Cc5cc(NC(=O)C6CC6)ccn5)cc4)nc3N[C@H]3CC[C@H](O)CC3)cc2)CC1 [UNC3622A] | < 10 | < 10 | < 10 | 
5 | O[C@H]1CC[C@H](Nc2nc(Nc3ccc(C#Cc4cc(Nc5ncco5)ccn4)cc3)ncc2-c2ccccn2)CC1 [UNC4392A] |  |  |  | IC50 (Axl; Table 4): 1000 to 30000 nM; IC50 (Mer; Table 4): 100 to 1000 nM; IC50 (Tyro3; Table 4, read-out: Tryo3 IC50): 100 to 1000 nM
6 | O[C@H]1CC[C@H](Nc2nc(Nc3ccc(C4CCCNC4)cc3)ncc2-c2ccccn2)CC1 (some centres unmarked) [UNC5129A] |  |  |  | IC50 (Axl; Table 2): 100 to 1000 nM; IC50 (Mer; Table 2): 100 to 1000 nM; IC50 (Tyro3; Table 2, read-out: Tyro3 IC50): 100 to 1000 nM
7 | CC(C)C(=O)Nc1ccnc(C#Cc2ccc(Nc3ncc(-c4ccc(CN5CCN(C)CC5)cc4)c(N[C@H]4CC[C@H](O)CC4)n3)cc2)c1 [UNC3870A] | < 10 | < 10 | < 10 | 
8 | Cc1cc(C#Cc2cc(NC(=O)C(C)C)ccn2)ccc1Nc1ncc(-c2ccc(CN3CCN(C)CC3)cc2)c(N[C@H]2CC[C@H](O)CC2)n1 [UNC4048A] | 100 to 1000 | 10 to 100 | 10 to 100 | 
9 | O[C@H]1CC[C@H](Nc2nc(Nc3ccccc3)ncc2-c2ccccn2)CC1 [UNC3029A] |  |  |  | IC50 (Axl; Table 1): 100 to 1000 nM; IC50 (Tyro3; Table 1, read-out: Tyro3 IC50): < 10 nM

Now from value to compound, other results behind:

Row | IC50 (Axl; Table 3) [nM] | IC50 (Mer; Table 3) [nM] | IC50 (Tyro3; Table 3, read-out: Tyro3 IC50) [nM] | SMILES | other results
10 | 100 to 1000 | 10 to 100 | 10 to 100 | CC(=O)Nc1ccnc(C#Cc2ccc(Nc3ncc(-c4ccc(CN5CCN(C)CC5)cc4)c(N[C@H]4CC[C@H](O)CC4)n3)cc2)c1 [UNC3874A] | 
11 | 10 to 100 | 10 to 100 | 100 to 1000 | NS(=O)(=O)c1ccc(-c2cnc(Nc3ccc(C#Cc4cc(C(=O)NC5CC5)ccn4)cc3)nc2N[C@H]2CC[C@H](O)CC2)nc1 [UNC3457A] | 
12 | 1000 to 30000 | 10 to 100 | 100 to 1000 | CN1CCN(Cc2ccc(-c3cnc(Nc4ccc(C#Cc5cc(N)ccn5)cc4)nc3N[C@H]3CC[C@H](O)CC3)cc2)CC1 [UNC3869A] | 
13 | < 10 | < 10 | < 10 | CCNC(=O)c1ccnc(C#Cc2ccc(Nc3ncc(-c4ccccn4)c(N[C@H]4CC[C@H](O)CC4)n3)cc2)c1 [UNC3458A] | 
14 | 10 to 100 | < 10 | 10 to 100 | CN1CCN(Cc2ccc(-c3cnc(Nc4ccc(C#Cc5cc(NC(=O)c6ccccc6)ccn5)cc4)nc3N[C@H]3CC[C@H](O)CC3)cc2)CC1 [UNC3868A] | 
